Data taken from ChEMBL document CHEMBL1201862, “PubChem BioAssay data set” (2004).
Calls of active or inactive are those of the source.

What was measured:
[1] = target: T1, Rac GTPase-activating protein 1 (Homo sapiens, UniProt Q9H0H5); assay: MgcRacGAP GTPase-activating activity inhibitors, confirmation, biochemical, ADP Hunter fluorescence, primary and confirmatory (AID 624330); assay type: functional
T1 sequence (Q9H0H5 whole entry): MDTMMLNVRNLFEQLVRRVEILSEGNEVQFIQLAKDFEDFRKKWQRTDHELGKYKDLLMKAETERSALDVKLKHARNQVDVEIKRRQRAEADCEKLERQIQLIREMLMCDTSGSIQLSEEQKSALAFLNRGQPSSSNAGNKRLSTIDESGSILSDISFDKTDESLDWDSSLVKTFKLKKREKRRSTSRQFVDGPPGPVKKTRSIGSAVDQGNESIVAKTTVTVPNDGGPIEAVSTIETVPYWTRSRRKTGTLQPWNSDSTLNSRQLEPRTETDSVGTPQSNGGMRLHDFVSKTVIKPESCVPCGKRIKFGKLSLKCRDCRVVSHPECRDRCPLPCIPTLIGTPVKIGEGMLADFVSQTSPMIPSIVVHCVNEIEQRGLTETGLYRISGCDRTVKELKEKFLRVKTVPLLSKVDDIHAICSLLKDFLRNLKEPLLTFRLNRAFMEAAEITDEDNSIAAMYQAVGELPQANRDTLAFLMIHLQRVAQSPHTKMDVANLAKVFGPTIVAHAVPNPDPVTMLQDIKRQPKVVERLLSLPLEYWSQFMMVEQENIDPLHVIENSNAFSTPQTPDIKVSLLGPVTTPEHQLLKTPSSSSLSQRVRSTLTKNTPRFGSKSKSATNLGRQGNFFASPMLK

[2] = cytotoxicity in HEK-293T cells, dose response, cytotoxicity control for TCR NF-kB inhibitor project, luminescence, T-cell screen hits (AID 489026); assay type: functional, cell-based;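 further: cells exposed to compound about 14 hours before the viability readout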
[3] = HeLa cell cytotoxicity, dose response, cytotoxicity control for MgcRacGAP inhibitor project (AID 624300); assay type: functional
HEK293 [4] = assay: cells; settings: Homo sapiens
HEK293 [5] = assay: cells; settings: Homo sapiens; remark: listed apart in the source
[6] = target: Dual specificity tyrosine-phosphorylation-regulated kinase 1A (Rattus norvegicus, UniProt Q63470); assay type: biochemical, Homo sapiens
[7] = target: Dual specificity protein kinase CLK1 (Homo sapiens, UniProt P49759); assay: CLK1 kinase inhibitors, off-target check, dose response, selectivity assay for Dyrk1A inhibitor project, biochemical, cherry-picked samples (AID 588811)
X-box-binding protein 1 = X-box-binding protein 1 (Homo sapiens, UniProt P17861); assay type: functional, Cricetulus griseus;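 further: confirmatory dose-response counter-screen serving a CHOP assay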
[8] = Luminescence Cell-Based Dose Response HTS to Identify Activators of Luciferase Translation or Activity in H4 […] Cells. [Related pubchem assays: 1829 (Project Summary), 1814 (Primary HTS)]; assay type: functional
[9] = target: DNA damage-inducible transcript 3 protein (Mus musculus, UniProt P35639); assay type: functional, Cricetulus griseus
H4 = assay: Luminescence Cell-Based Dose Response HTS to Identify Activators of 5'UTR Stem-Loop Driven Prion Protein mRNA Translation in H4 Neuroglioblastoma Cells. [Related pubchem assays: 1829 (Project Summary), 1814 (Primary HTS)]; assay type: functional; settings: Homo sapiens
Vero = assay: cells; assay type: functional; settings: Chlorocebus sabaeus
[10] = Luminescence Cell-Based Dose Confirmation HTS to Identify Activators of 5'UTR Stem-Loop Driven Alpha-Synuclein mRNA Translation in H4 Neuroglioblastoma Cells. [Related pubchem assays: 1829 (Project Summary), 1814 (Primary HTS)]; assay type: functional
[11] = inhibitors of intracellular T. cruzi replication, confirmation, NIH3T3 host cells, beta-gal luminescence (AID 2044); assay type: functional, cell-based;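 further: intracellular parasites grown in NIH/3T3 mouse fibroblasts as host cells; luminescent beta-galactosidase reporter signal from transgenic T. cruzi replicating inside host cells; inhibitors lower the luminescence signal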
[12] = cytotoxicity toward NIH3T3 fibroblasts, dose response, counter-screen, cell-based, ATP luminescence, mouse fibroblasts (AID 2010); assay type: functional;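 further: cells exposed to compound for about 90 hours before reading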
A-375 = assay: A375 melanoma cell viability reduction, dose response, counter-screen for MITF modulator project, cherry-pick samples, set 2 (AID 540335); assay type: functional, cell-based; settings: Homo sapiens
[13] = target: T2, Microphthalmia-associated transcription factor (Homo sapiens, UniProt O75030); assay: TRPM1 promoter luciferase signal decrease, dose response, MITF inhibitor project, cell-based, SK-MEL-5, cherry-picked, set 3 (AID 493073); assay type: functional
T2 sequence (O75030 whole entry): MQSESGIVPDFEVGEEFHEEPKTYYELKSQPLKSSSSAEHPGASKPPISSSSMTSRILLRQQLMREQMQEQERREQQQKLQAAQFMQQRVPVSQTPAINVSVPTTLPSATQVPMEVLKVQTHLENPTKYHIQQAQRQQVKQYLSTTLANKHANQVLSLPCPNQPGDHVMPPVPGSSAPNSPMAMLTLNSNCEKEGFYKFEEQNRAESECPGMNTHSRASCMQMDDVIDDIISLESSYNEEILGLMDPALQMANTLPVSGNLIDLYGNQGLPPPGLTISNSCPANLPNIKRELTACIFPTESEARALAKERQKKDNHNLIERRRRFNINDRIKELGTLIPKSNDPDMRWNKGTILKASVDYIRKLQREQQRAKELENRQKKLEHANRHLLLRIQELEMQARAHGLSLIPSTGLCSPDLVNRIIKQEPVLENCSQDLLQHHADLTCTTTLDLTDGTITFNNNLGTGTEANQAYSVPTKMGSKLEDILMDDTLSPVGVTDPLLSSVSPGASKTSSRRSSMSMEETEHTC

HeLa = assay: HeLa cell cytotoxicity, dose response, cytotoxicity control for MITF activator project, CellTiter-Glo luminescence, cherry-pick samples (AID 540259); assay type: functional, cell-based; settings: Homo sapiens
[14] = target: T3, Alkaline phosphatase, tissue-nonspecific isozyme (Homo sapiens, UniProt P05186); assay: human TNAP enzyme inhibitors, SAR follow-up, biochemical, luminescent, dose response (AID 1056)
T3 sequence (P05186 whole entry): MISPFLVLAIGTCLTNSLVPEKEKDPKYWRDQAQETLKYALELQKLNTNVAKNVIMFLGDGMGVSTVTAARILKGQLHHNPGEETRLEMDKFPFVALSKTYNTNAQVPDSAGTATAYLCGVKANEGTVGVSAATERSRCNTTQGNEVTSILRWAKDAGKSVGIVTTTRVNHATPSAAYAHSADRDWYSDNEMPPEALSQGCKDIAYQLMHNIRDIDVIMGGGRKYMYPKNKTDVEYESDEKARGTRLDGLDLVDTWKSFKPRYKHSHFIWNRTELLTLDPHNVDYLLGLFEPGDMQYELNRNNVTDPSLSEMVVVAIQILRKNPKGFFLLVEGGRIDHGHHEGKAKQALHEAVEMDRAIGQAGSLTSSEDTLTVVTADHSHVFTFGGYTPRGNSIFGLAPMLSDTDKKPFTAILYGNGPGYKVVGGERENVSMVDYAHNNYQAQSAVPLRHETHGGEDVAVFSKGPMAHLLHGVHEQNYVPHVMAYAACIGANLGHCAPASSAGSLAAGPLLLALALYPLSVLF

[15] = target: Glyceraldehyde-3-phosphate dehydrogenase (Homo sapiens, UniProt P04406)
[16] = target: Alkaline phosphatase, placental type (Homo sapiens, UniProt P05187); assay: PLAP enzyme inhibitors, confirmation, biochemical, luminescence (AID 1512); assay type: functional
Melanocortin receptor 4 = Melanocortin receptor 4 (Homo sapiens, UniProt P32245); assay type: functional, cell-based;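 further: Cell-based assay with luminescence read-out, confirmatory dose-response testing for agonist activity of biased ligands at MC4R; human U2OS cells with tagged receptor and beta-arrestin; potency of agonists that increase receptor coupling to beta-arrestin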
Insulin-degrading enzyme [17] = target: T4, Insulin-degrading enzyme (Homo sapiens, UniProt P14735); assay: activators of endogenous IDE in HEK cells, dose response, cell-based, fluorescence polarization (AID 588439); assay type: functional
T4 sequence (P14735 whole entry): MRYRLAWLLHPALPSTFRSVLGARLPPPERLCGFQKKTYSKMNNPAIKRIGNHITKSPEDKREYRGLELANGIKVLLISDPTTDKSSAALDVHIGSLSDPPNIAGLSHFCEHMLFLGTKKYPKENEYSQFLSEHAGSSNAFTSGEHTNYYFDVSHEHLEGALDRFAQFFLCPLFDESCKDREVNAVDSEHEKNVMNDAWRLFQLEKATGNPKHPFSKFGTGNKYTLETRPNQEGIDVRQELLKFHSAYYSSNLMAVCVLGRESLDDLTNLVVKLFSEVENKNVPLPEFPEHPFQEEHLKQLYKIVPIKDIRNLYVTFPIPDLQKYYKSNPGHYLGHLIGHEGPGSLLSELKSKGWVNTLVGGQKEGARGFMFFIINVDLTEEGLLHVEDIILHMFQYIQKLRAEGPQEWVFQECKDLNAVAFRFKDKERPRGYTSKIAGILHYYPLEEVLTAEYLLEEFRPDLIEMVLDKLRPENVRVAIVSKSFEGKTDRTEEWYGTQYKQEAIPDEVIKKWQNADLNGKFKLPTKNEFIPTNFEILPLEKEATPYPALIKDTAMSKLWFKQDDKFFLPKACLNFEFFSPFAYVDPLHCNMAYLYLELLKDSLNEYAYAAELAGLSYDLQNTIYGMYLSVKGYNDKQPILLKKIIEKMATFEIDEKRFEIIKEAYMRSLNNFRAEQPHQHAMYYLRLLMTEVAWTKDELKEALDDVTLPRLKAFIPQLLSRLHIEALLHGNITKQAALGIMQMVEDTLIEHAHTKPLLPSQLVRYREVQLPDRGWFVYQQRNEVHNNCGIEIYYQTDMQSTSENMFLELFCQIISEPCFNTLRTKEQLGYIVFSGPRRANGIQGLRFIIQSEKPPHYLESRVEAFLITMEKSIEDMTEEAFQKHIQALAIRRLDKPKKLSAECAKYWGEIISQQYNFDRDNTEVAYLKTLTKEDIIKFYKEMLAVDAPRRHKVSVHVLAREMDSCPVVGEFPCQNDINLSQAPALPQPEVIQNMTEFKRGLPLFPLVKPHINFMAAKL

HEK293 [18] = assay: HEK cell cytotoxicity by LDH release, dose response, cytotoxicity control for IDE activator project, fluorescence, HEK cells (AID 588440); assay type: functional, cell-based; settings: Homo sapiens;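 further: cytotoxicity by LDH release measuring loss of membrane integrity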
HEK293 [19] = assay: optical interference in Abeta FP readout, dose response, artefact control for IDE activator project, biochemical, fluorescence polarization (AID 588442); assay type: functional, cell-based; settings: Homo sapiens
Insulin-degrading enzyme [20] = target: T4, Insulin-degrading enzyme; assay: activators of recombinant IDE enzyme, dose response, counter-screen for IDE activator project, biochemical, fluorescence polarization (AID 588681)
[21] = A Cell Based Secondary Assay To Explore Cytotoxicity of Compounds that Sensitize Mycobacterium Tuberculosis to Beta-Lactam Antibiotics.; assay type: functional
Cytochrome P450 2C9 = Cytochrome P450 2C9 (Homo sapiens, UniProt P11712)
Cytochrome P450 2D6 = Cytochrome P450 2D6 (Homo sapiens, UniProt P10635);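 further: CYP2D6 member of a cytochrome P450 panel assay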
Cytochrome P450 2C19 = Cytochrome P450 2C19 (Homo sapiens, UniProt P33261); assay: Cytochrome panel assay with activity outcomes. Panel member name: p450-cyp2c19 Compounds with AC50 equal or less than 10 uM are considered active; assay type: functional
Cytochrome P450 3A4 [22] = target: T5, Cytochrome P450 3A4 (Homo sapiens, UniProt P08684);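 further: CYP3A4 tested as one member of a cytochrome P450 panel screen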
Cytochrome P450 3A4 [23] = target: T5, Cytochrome P450 3A4; remark: listed apart in the source

Chain of Alkaline phosphatase, placental type (P05187 whole entry): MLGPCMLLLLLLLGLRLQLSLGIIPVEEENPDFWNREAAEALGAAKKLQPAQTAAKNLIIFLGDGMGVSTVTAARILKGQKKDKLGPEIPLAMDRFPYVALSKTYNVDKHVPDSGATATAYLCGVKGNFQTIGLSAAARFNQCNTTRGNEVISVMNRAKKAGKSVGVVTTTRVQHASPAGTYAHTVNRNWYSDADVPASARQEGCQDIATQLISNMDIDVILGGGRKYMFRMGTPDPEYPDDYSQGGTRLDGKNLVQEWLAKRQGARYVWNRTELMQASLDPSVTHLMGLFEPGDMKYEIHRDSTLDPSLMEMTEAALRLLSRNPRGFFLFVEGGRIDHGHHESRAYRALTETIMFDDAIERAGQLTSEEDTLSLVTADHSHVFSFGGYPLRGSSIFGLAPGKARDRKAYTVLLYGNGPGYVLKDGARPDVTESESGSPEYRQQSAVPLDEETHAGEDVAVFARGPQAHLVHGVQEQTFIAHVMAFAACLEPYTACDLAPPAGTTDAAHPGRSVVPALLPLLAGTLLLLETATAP
Chain of Cytochrome P450 2C19 (P33261 whole entry): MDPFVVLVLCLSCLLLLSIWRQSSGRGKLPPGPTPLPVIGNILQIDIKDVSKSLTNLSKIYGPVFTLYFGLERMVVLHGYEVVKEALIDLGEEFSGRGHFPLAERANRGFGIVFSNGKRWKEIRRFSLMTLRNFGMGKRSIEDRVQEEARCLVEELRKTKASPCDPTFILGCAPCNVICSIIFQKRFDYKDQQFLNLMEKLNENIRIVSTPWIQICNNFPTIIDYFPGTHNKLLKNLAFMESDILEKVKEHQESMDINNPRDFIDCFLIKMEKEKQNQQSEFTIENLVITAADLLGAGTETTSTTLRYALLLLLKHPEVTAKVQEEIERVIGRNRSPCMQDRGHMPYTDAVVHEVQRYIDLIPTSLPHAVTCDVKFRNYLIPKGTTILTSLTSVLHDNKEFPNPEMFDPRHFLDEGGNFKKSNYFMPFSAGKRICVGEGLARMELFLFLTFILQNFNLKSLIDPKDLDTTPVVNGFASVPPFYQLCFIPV
Chain of Dual specificity protein kinase CLK1 (P49759 whole entry): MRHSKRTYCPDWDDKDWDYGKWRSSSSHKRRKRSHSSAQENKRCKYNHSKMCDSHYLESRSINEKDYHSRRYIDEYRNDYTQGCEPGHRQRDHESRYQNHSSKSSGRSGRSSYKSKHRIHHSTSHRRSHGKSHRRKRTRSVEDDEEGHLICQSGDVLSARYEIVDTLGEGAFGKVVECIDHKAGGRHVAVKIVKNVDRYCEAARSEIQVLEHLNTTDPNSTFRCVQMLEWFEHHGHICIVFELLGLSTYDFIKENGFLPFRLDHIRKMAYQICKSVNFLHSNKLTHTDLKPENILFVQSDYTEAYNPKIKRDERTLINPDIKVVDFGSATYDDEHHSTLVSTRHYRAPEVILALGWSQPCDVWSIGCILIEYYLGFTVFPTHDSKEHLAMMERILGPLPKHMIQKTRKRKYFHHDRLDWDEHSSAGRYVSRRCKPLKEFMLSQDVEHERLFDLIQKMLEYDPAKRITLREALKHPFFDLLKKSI
T5 sequence (P08684 whole entry): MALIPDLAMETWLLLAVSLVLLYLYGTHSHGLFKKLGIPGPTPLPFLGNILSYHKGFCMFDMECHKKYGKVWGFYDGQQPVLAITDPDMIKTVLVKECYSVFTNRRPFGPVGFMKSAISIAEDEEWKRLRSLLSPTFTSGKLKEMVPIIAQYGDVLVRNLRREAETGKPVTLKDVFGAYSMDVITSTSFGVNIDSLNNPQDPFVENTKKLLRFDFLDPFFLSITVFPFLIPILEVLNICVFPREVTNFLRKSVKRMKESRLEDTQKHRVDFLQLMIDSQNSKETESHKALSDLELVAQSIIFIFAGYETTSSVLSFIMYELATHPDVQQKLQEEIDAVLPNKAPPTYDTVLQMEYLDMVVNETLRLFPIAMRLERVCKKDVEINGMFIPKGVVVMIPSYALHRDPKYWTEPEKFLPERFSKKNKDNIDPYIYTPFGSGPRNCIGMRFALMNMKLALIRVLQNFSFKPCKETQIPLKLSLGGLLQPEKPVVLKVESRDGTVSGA
Chain of Cytochrome P450 2D6 (P10635 whole entry): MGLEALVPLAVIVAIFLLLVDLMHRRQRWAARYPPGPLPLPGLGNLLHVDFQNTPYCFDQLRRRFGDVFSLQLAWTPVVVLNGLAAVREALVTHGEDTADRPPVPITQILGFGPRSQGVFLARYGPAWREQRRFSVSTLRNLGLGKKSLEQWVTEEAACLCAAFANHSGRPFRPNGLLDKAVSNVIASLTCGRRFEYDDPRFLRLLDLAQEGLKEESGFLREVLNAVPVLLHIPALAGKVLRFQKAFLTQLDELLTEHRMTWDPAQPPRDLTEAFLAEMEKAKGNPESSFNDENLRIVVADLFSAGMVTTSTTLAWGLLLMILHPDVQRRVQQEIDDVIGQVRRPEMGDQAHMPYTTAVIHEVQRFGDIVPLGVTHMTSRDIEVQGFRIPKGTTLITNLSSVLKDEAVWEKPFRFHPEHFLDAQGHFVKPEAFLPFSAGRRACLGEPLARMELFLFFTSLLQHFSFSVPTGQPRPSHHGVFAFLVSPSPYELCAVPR
Chain of Melanocortin receptor 4 (P32245 whole entry): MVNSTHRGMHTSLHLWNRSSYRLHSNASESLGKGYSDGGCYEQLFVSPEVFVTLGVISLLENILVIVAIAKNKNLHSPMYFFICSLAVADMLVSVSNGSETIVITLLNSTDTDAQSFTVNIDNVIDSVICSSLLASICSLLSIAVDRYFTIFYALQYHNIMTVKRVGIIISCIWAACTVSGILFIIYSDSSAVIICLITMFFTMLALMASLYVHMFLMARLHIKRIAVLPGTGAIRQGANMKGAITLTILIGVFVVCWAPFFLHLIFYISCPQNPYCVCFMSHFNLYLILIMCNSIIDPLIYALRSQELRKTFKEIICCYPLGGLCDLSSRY
Chain of Cytochrome P450 2C9 (P11712 whole entry): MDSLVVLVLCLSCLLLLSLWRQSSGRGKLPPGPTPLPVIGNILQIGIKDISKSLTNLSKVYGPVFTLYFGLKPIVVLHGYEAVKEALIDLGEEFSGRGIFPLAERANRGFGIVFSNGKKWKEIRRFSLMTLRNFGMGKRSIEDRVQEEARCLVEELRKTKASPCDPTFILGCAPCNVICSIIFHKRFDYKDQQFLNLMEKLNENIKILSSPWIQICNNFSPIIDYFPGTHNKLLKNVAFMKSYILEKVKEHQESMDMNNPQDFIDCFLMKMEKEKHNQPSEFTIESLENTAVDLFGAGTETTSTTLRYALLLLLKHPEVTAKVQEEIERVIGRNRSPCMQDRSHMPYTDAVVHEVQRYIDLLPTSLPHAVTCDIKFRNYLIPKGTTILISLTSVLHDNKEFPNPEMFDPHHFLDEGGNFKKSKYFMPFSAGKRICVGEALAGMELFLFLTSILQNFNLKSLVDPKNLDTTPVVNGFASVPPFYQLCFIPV
Chain of X-box-binding protein 1 (P17861 whole entry): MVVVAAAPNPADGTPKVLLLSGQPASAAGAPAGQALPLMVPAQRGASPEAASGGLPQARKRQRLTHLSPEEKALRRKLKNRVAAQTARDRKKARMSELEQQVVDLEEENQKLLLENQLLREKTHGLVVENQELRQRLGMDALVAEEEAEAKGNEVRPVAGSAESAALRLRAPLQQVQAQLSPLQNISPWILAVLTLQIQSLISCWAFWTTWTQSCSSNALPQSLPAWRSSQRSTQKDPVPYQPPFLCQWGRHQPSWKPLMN
Chain of DNA damage-inducible transcript 3 protein (P35639 whole entry): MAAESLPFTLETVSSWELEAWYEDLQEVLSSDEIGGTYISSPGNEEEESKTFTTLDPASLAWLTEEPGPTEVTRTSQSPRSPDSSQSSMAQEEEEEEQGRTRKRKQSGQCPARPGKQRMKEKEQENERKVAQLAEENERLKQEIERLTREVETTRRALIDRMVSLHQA
Chain of Glyceraldehyde-3-phosphate dehydrogenase (P04406 whole entry): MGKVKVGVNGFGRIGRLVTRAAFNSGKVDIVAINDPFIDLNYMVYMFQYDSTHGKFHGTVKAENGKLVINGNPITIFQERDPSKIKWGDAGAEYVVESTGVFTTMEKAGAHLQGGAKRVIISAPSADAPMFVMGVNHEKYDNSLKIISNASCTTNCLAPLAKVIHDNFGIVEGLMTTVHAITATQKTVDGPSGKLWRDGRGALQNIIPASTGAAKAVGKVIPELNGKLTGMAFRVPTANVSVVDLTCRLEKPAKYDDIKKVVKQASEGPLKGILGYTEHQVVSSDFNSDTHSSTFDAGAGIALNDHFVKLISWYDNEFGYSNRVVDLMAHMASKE

## COc1cc(/C=C2/SC(Nc3ccc(O)cc3)=NC2=O)ccc1O
[1]
  IC50: 20 µM (active)
[2]
  IC50: 42.7 µM (inactive)
[3]
  CC50: 61.1 µM (active)

## COc1ccccc1-c1ccc2c(c1)C(C)(Cc1ccc(F)c(Cl)c1)C(=O)N2 (stereo not drawn)
HEK293 [4]
  EC50: > 59.6 µM (inactive)
HEK293 [5]
  EC50: > 59.6 µM (inactive)

## Cc1nc(NC(=O)c2ccccc2)sc1-c1csc(N)n1
[6]
  AC50: 1.26 µM (active)
[7]
  AC50: 1.35 µM (active)

## COc1ccc(-c2nccc(NCc3ccc(C)cc3)n2)cc1
[7]
  AC50: 0.00697 µM (active)

## COc1ccc(/C=C(/C(=O)c2cccs2)N2C=CC=CC2=C(C#N)C#N)cc1
[6]
  AC50: 8.18 µM (active)
X-box-binding protein 1
  Absolute IC50 (XBP1): 10 µM
HEK293 [4]
  EC50: > 59.6 µM (inactive)
[8]
  EC50: > 120 µM (not active)
[9]
  Absolute IC50 (CHOP): 10 µM
H4
  EC50: > 120 µM (not active)
HEK293 [5]
  EC50: > 59.6 µM (inactive)
Vero
  CC50: > 25 µM (active)
[10]
  EC50: > 120 µM (not active)

## CN(Cc1ccccc1)C1=CC(=[N+]2CCCCC2)CC(C)(C)C1
[11]
  EC50: < 0.1 µM (active)
[12]
  EC50: > 60 µM (not active)
A-375
  AC50: 84.3 µM (active)
cells
  EC50: 0.032 µM (active)
[13]
  AC50: 2.46 µM (active)
[2]
  IC50: > 80 µM (inactive)

## O=c1c2ccccc2oc2c1ccc1ccccc12
HeLa
  AC50: 32.3 µM (active)

## COc1ccc(Cc2nc(N)nn2-c2ccccc2)cc1
[14]
  IC50: > 100 µM (inactive)
[15]
  IC50: > 100 µM (not active)
[16]
  IC50: > 100 µM (inactive)

## Cc1cc(C)c2sc(N(CCCN(C)C)C(=O)COc3ccc(Cl)cc3)nc2c1
Melanocortin receptor 4
  EC50: > 89.2 µM (inactive)
Insulin-degrading enzyme [17]
  EC50: > 54.7 µM (inactive)
HEK293 [18]
  IC50: 26.2 µM (inactive)
HEK293 [19]
  EC50: > 55.9 µM (inactive)
Insulin-degrading enzyme [20]
  EC50: > 54.7 µM (inactive)
[21]
  CC50: > 40 µM (active)

## CCCCNC(=O)c1cc2nc3c(c(C(F)(F)F)n2n1)CCc1ccccc1-3
Cytochrome P450 2C9
  AC50: 0.398 µM (inconclusive)
Cytochrome P450 2D6
  AC50: inconclusive
Cytochrome P450 2C19; read-out: AC50
  AC50: 15.8 µM (inconclusive)
Cytochrome P450 3A4 [22]
  AC50: 7.94 µM (inconclusive)

## COc1ccc(C(=O)c2c[nH]c3ccccc23)cc1
HeLa
  AC50: 41.9 µM (active)

## Cc1cc(C)nc(SCC(=O)c2ccc3c(c2)OCO3)n1
[14]
  IC50: > 100 µM (inactive)
[16]
  IC50: > 100 µM (inactive)

## COc1cccc(NC(=O)CSc2nc3c(c(-c4ccco4)c2C#N)CCCC3)c1
Cytochrome P450 3A4 [23]
  AC50: inconclusive
Cytochrome P450 2D6
  AC50: inconclusive
Cytochrome P450 2C19
  AC50: inconclusive
